What follows are compounds tested against T1, TPM3-TRKA fusion protein (Homo sapiens, UniProt P04629) (assay: TPM3-TRKA fusion protein levels in KM12 cells (Western blot)). Settings: 16 h; TPM3-TRKA degradation in KM12 cells at 10 nM compound, category of percentage degradation; read-out: Degradation (at 10 nM).
T1 construct: The resulted chimeric proteins always retain the kinase domain of TRK proteins; TPM3 (fusion partner, N-terminal part of tropomyosin alpha-3, P06753); endogenous in cells; host or cells: KM12 colon cancer cells; the other entry of the earlier key: TPM3 (P06753, Tropomyosin alpha-3 chain)
T1 sequence (P04629 with tags, fused parts or gaps): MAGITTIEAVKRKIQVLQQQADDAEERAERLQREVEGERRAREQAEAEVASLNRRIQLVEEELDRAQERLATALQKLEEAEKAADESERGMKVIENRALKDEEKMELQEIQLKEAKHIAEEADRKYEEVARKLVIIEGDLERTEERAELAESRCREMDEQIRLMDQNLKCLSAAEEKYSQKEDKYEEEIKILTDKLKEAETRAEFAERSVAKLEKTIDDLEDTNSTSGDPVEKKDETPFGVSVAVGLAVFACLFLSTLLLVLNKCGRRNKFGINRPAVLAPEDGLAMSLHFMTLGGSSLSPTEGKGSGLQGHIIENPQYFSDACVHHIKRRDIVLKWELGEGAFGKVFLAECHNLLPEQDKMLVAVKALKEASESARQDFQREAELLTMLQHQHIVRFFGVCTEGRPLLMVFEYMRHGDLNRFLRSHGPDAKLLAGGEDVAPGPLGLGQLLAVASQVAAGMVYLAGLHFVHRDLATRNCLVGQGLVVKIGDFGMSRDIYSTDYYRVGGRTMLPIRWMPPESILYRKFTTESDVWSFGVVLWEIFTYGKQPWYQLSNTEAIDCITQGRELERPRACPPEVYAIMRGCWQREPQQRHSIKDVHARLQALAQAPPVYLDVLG
Format: cell-based
In short: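 TPM3-TRKA levels were assessed by Western blot with chemiluminescent detection and band densitometry, after SDS-PAGE of BCA-normalized RIPA lysates. Before lysis, KM12 cells received DMSO, compounds or matched control compounds at concentrations including 0.1, 1, 10 and 100 nM and 0.4–30 nM. Exposures lasted 4 h, 8–16 h or 16 h.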

Row | SMILES | percent degradation of TPM3-TRKA protein at 0.01 µM
1 | O=C1CCC(N2Cc3ccc(NCC(=O)N4CCN(c5cccc(-c6cnc7ccc(N8CCC[C@@H]8c8cccc(F)c8)nn67)n5)CC4)cc3C2=O)C(=O)N1 (stereo partly drawn) [TR-189, 3-(6-((2-(4-(6-(6-((R)-2-(3-fluorophenyl)pyrrolidin-1-yl)imidazo[1,2-b]pyridazin-3-yl)pyridin-2-yl)piperazin-1-yl)-2-oxoethyl)amino)-1-oxoisoindolin-2-yl)piperidine-2,6-dione] | > 80%
2 | O=C1CCC(N2Cc3cc(NCCN4CCN(c5cccc(-c6cnc7ccc(N8CCC[C@@H]8c8cccc(F)c8)nn67)n5)CC4)ccc3C2=O)C(=O)N1 (stereo partly drawn) [TR-191, 3-(5-((2-(4-(6-(6-((R)-2-(3-fluorophenyl)pyrrolidin-1-yl)imidazo[1,2-b]pyridazin-3-yl)pyridin-2-yl)piperazin-1-yl)ethyl)amino)-1-oxoisoindolin-2-yl)piperidine-2,6-dione] | > 80%
3 | O=C1CCC(N2Cc3ccc(NCCN4CCN(c5cccc(-c6cnc7ccc(N8CCC[C@@H]8c8cccc(F)c8)nn67)n5)CC4)cc3C2=O)C(=O)N1 (stereo partly drawn) [TR-196, 3-(6-((2-(4-(6-(6-((R)-2-(3-fluorophenyl)pyrrolidin-1-yl)imidazo[1,2-b]pyridazin-3-yl)pyridin-2-yl)piperazin-1-yl)ethyl)amino)-1-oxoisoindolin-2-yl)piperidine-2,6-dione] | 50 to 80%
4 | O=C1CCC(N2Cc3ccc(C#CC(=O)N4CCN(c5cccc(-c6cnc7ccc(N8CCC[C@@H]8c8cccc(F)c8)nn67)n5)CC4)cc3C2=O)C(=O)N1 (stereo partly drawn) [TR-202, 3-(6-(3-(4-(6-(6-((R)-2-(3-Fluorophenyl)pyrrolidin-1-yl)imidazo[1,2-b]pyridazin-3-yl)pyridin-2-yl)piperazin-1-yl)-3-oxoprop-1-yn-1-yl)-1-oxoisoindolin-2-yl)piperidine-2,6-dione] | 50 to 80%
5 | O=C1CCC(N2Cc3cc(C#CC(=O)N4CCN(c5cccc(-c6cnc7ccc(N8CCC[C@@H]8c8cccc(F)c8)nn67)n5)CC4)ccc3C2=O)C(=O)N1 (stereo partly drawn) [TR-203, 3-(5-(3-(4-(6-(6-((R)-2-(3-fluorophenyl)pyrrolidin-1-yl)imidazo[1,2-b]pyridazin-3-yl)pyridin-2-yl)piperazin-1-yl)-3-oxoprop-1-yn-1-yl)-1-oxoisoindolin-2-yl)piperidine-2,6-dione] | 50 to 80%
6 | O=C1CCC(N2C(=O)c3ccc(CCN4CCN(c5cccc(-c6cnc7ccc(N8CCC[C@@H]8c8cccc(F)c8)nn67)n5)CC4)cc3C2=O)C(=O)N1 (stereo partly drawn) [TR-204, 2-(2,6-dioxopiperidin-3-yl)-5-(2-(4-(6-(6-((R)-2-(3-fluorophenyl)pyrrolidin-1-yl)imidazo[1,2-6]pyridazin-3-yl)pyridin-2-yl)piperazin-1-yl)ethyl)isoindoline-1,3-dione] | > 80%
7 | O=C1CCC(N2Cc3cc(C#CC4CCN(c5cccc(-c6cnc7ccc(N8CCC[C@@H]8c8cccc(F)c8)nn67)n5)CC4)ccc3C2=O)C(=O)N1 (stereo partly drawn) [TR-208, 3-(5-((1-(6-(6-((R)-2-(3-fluorophenyl)pyrrolidin-1-yl)imidazo[1,2-b]pyridazin-3-yl)pyridin-2-yl)piperidin-4-yl)ethynyl)-1-oxoisoindolin-2-yl)piperidine-2,6-dione] | 50 to 80%
8 | O=C1CCC(N2Cc3cc(NCC4CN(c5cccc(-c6cnc7ccc(N8CCC[C@@H]8c8cccc(F)c8)nn67)n5)C4)ccc3C2=O)C(=O)N1 (stereo partly drawn) [TR-210, 3-(5-(((1-(6-(6-((R)-2-(3-Fluorophenyl)pyrrolidin-1-yl)imidazo[1,2-b]pyridazin-3-yl)pyridin-2-yl)azetidin-3-yl)methyl)amino)-1-oxoisoindolin-2-yl)piperidine-2,6-dione] | 50 to 80%
9 | COc1ccc(CN(CCN2CCN(c3cccc(-c4cnc5ccc(N6CCC[C@@H]6c6cccc(F)c6)nn45)n3)CC2)c2ccc3c(c2)C(=O)N(C2CCC(=O)NC2=O)C3=O)cc1 (stereo partly drawn) [TR-214, 2-(2,6-Dioxo-3-piperidyl)-5-(2-(4-(6-(6-((2R)-2-(3-fluorophenyl)pyrrolidin-1-yl)imidazo[1,2-b]pyridazin-3-yl)-2-pyridyl)piperazin-1-yl)ethyl-((4-methoxyphenyl)methyl)amino) isoindoline-1,3-dione] | < 50%
10 | Cn1c(=O)n(C2CCC(=O)NC2=O)c2cccc(NCCN3CCN(c4cccc(-c5cnc6ccc(N7CCC[C@@H]7c7cccc(F)c7)nn56)n4)CC3)c21 (stereo partly drawn) [TR-216, 3-[4-[2-[4-[6-[6-[(2R)-2-(3-Fluorophenyl)pyrrolidin-1-yl]imidazo[1,2-b]pyridazin-3-yl]-2-pyridyl]piperazin-1-yl]ethylamino]-3-methyl-2-oxo-benzimidazol-1-yl]piperidine-2,6-dione] | > 80%
11 | Cn1c(=O)n(C2CCC(=O)NC2=O)c2cccc(NCCCN3CCN(c4cccc(-c5cnc6ccc(N7CCC[C@@H]7c7cccc(F)c7)nn56)n4)CC3)c21 (stereo partly drawn) [TR-217, 3-[4-[3-[4-[6-[6-[(2R)-2-(3-Fluorophenyl)pyrrolidin-1-yl]imidazo[1,2-b]pyridazin-3-yl]-2-pyridyl]piperazin-1-yl]propylamino]-3-methyl-2-oxo-benzimidazol-1-yl]piperidine-2,6-dione] | > 80%
12 | O=C1CCC(N2Cc3cc(NCC4CCN(c5cccc(-c6cnc7ccc(N8CCC[C@@H]8c8cccc(F)c8)nn67)n5)CC4)ccc3C2=O)C(=O)N1 (stereo partly drawn) [TR-218, 3-(5-(((1-(6-(6-((R)-2-(3-fluorophenyl)pyrrolidin-1-yl)imidazo[1,2-b]pyridazin-3-yl)pyridin-2-yl)piperidin-4-yl)methyl)amino)-1-oxoisoindolin-2-yl)piperidine-2,6-dione] | 50 to 80%
13 | O=C1CCC(N2Cc3cc(C#CC4CN(c5cccc(-c6cnc7ccc(N8CCC[C@@H]8c8cccc(F)c8)nn67)n5)C4)ccc3C2=O)C(=O)N1 (stereo partly drawn) [TR-219, 3-(5-((1-(6-(6-((R)-2-(3-Fluorophenyl)pyrrolidin-1-yl)imidazo[1,2-b]pyridazin-3-yl)pyridin-2-yl)azetidin-3-yl)ethynyl)-1-oxoisoindolin-2-yl)piperidine-2,6-dione] | 50 to 80%
14 | Cn1c(=O)n(C2CCC(=O)NC2=O)c2ccc(NCCN3CCN(c4cccc(-c5cnc6ccc(N7CCC[C@@H]7c7cccc(F)c7)nn56)n4)CC3)cc21 (stereo partly drawn) [TR-220, 3-(5-((2-(4-(6-(6-((R)-2-(3-Fluorophenyl)pyrrolidin-1-yl)imidazo[1,2-b]pyridazin-3-yl)pyridin-2-yl)piperazin-1-yl)ethyl)amino)-3-methyl-2-oxo-2,3-dihydro-1H-benzo[d]imidazol-1-yl)piperidine-2,6-dione] | > 80%
15 | O=C1CCC(N2C[C@H](c3cccc(C#CCN4CCN(c5cccc(-c6cnc7ccc(N8CCC[C@@H]8c8cccc(F)c8)nn67)n5)CC4)c3)OC2=O)C(=O)N1 (stereo partly drawn) [TR-223, 3-((S)-5-(3-(3-(4-(6-(6-((R)-2-(3-fluorophenyl)pyrrolidin-1-yl)imidazo[1,2-b]pyridazin-3-yl)pyridin-2-yl)piperazin-1-yl)prop-1-yn-1-yl)phenyl)-2-oxooxazolidin-3-yl)piperidine-2,6-dione] | 50 to 80%
